pIC50: −log10 of the molar value.
What was measured:
[1] = test system: human ERK1 dually phosphorylated at T202/Y204 and ERK2; test: Phosphorylated ERK1/ERK2 ELISA; assay type: cell-based; settings: phosphorylated ERK in cell lysates after treatment with compounds; sandwich ELISA; cell line not stated
Procedure: An ERK phosphorylation ELISA kit was used to characterize compounds for KRAS-based cell activity. The sandwich ELISA (RnD Systems. Catalog #DYC1018B) measures human ERK1 that is dually phosphorylated at T202/Y204 and ERK2. Cell lysates from cells before and after treatment with compounds were prepared using kit manufacturer protocols.
All reagents were prepared following the kit's protocol. The wells of a 96-well microtiter plate were coated with 100 μL of 8.0 μg/mL of capture antibody in PBS. The plate was sealed and left to incubate overnight at ambient temperature. After incubation, the wells were washed with 400 μL of Wash Buffer for a total of 3 washes. Wells were then blocked by adding 300 μL of Block Buffer to each well and incubated at ambient temperature for 1-2 hours. After removal of the Block Buffer by aspirating and washing, 100 μL of standards and samples were added to the plate in duplicates and incubated for 2 hours at ambient temperature. The aspiration and wash steps were repeated to remove unbound standard and samples and 100 μL of 400 ng/mL detection antibody was applied to each well. After 2 hours at ambient temperature, detection antibody was removed by washing and 100 μL of Streptavidin-HRP was added to each well. Incubation of Streptavidin-HRP was at ambient temperature for 20 minutes, after which Streptavidin-HRP was removed by washing, 100 μL of Substrate Solution was added to each well and incubated for 20 minutes before 50 μL of Stop Solution was added to each well.
The optical density of each well was immediately analyzed at 450 nm with a wavelength correction at 540 nm. The standards were plotted by averaging the optical density for each replicate and fitted with a four-parameter logistic curve fit. Concentrations of phosphorylated ERK in cell lysate samples were determined by extrapolation from the standard curve and then adjusted for any dilution factors.

KRAS (G12C) = molecular target: T1, KRAS (G12C) (Homo sapiens, UniProt P01116, G12C); test: KRAS G12C Nucleotide Exchange Assay (fixed GTP concentration); assay type: biochemical; settings: KRAS (G12C) labeled with BODIPY-GDP; fixed GTP concentration; 2 hours compound incubation; fluorescence readout; read-out: IC50
T1 construct: purchased BPS Bioscience 79859
T1 sequence (P01116 1-188 isoform P01116-2 G12C): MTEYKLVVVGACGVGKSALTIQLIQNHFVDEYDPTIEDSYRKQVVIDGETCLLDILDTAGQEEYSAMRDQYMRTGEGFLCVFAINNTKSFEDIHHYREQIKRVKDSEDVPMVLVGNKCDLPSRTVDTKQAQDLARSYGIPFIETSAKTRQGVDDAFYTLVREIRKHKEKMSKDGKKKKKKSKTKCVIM
Procedure: A KRAS (G12C) Nucleotide Exchange Assay kit was used to evaluate compound antagonistic binding. The assay kit (BPS Bioscience. Catalog #79859) utilizes KRAS (G12C) labeled with BODIPY-GDP to determine if compounds can affect the nucleotide exchange (GDP to GTP) in KRAS signaling, Compounds were typically characterized using both protocols: fixed GTP concentrations and fixed inhibitor concentrations.
All reagents were prepared following manufacturer's protocol. 5 μL BODIPY-GDP and 10 μL of KRAS buffer were added to each well. A 3-fold serial dilution of compound in 5% DMSO was prepared. Typically, compounds were tested in the range of 0 μM to 50 μM, but the range could be modified depending on the characterization needs. 5 μL of diluted compound was added to the wells and the plate was centrifuged briefly to ensure all components were mixed before incubation at ambient temperature. After incubation for 2 hours, 10 μM GTP and 25 mM EDTA were mixed at a 1:1 ratio and 5 μL was added to the wells. The plate was then incubated for 1 hour at ambient temperature. After incubation, fluorescence was measured at […].
Data was analyzed by plotting fluorescence vs GTP concentration for control wells and compound wells.

Q: With `C=CC(=O)N1CCN(c2nc(OC[C@@H]3CCCN3CCNC(=O)CN3CCN4CCN5CCN(CC3)CC(=O)[O][Lu]([O]C(=O)C4)[O]C(=O)C5)nc3c2CCN(c2cccc4cccc(Cl)c24)C3)C[C@@H]1CC#N` [Lu-CHL-002, N-[2-[(2S)-2-[[7-(8-chloro-1-naphthyl)-4-[(3S)-3-(cyanomethyl)-4-prop-2-enoyl-piperazin-1-yl]-6,8-dihydro-5H-pyrido[3,4-d]pyrimidin-2-yl]oxymethyl]pyrrolidin-1-yl]ethyl]-2-(3,16,19-trioxo-2,17,18-trioxa-5.8,11,14-tetraza-1λ3-lutetatricyclo[9.6.3,25,14]docosan-8-yl)acetamide] as the compound, how does the pIC50 [1] read?
A: Its pIC50 is 5.00 to 6.00.

Q: What about the pIC50 (KRAS (G12C)) of the same compound?
A: Its pIC50 is 5.00 to 6.00.
